ChEMBL document CHEMBL2311340, “Chemical constituents from the fruit of Gardenia jasminoides and their inhibitory effects on nitric oxide production” (Bioorg Med Chem Lett, 2013)

System: RAW264.7
Assay: Inhibition of nitric oxide production in lipopolysaccharide-activated mouse RAW264.7 cells by Griess reaction based method
Format: functional, cell-based

Point of comparison: `CC(/C=C/C=C(\C)C(=O)O)=C\C=C\C=C(C)\C=C\C=C(/C)C(=O)O` [TRANSCROCETIN], IC50 5.99 µM. Against it:
- CC(/C=C/C=C(\C)C(=O)O[C@@H]1O[C@H](CO[C@@H]2O[C@H](CO)[C@@H](O)[C@H](O)[C@H]2O)[C@@H](O)[C@H](O)[C@H]1O)=C\C=C\C=C(C)\C=C\C=C(/C)C(=O)O[C@@H]1O[C@H](CO[C@@H]2O[C@H](CO)[C@@H](O)[C@H](O)[C@H]2O)[C@@H](O)[C@H](O)[C@H]1O [CROCIN] — higher, > 100 µM
- CC(/C=C/C=C(\C)C(=O)O[C@@H]1O[C@H](CO)[C@@H](O)[C@H](O)[C@H]1O)=C\C=C\C=C(C)\C=C\C=C(/C)C(=O)O[C@@H]1O[C@H](CO[C@@H]2O[C@H](CO)[C@@H](O)[C@H](O)[C@H]2O)[C@@H](O)[C@H](O)[C@H]1O — higher, > 100 µM
- COC(=O)C1=CO[C@@H](O)[C@@H]2C(CO)=CC[C@H]12 [GENIPIN] — 1.9-fold higher, 11.1 µM
- COC(=O)C1=CO[C@@H](O[C@@H]2O[C@H](CO)[C@@H](O)[C@H](O)[C@H]2O)[C@@H]2C(CO[C@@H]3O[C@H](CO)[C@@H](O)[C@H](O)[C@H]3O)=CC[C@H]12 [GENAMESIDE D] — higher, > 100 µM
- COC(=O)C1=CO[C@@H](O[C@@H]2O[C@H](CO)[C@@H](O)[C@H](O)[C@H]2O)[C@@H]2C(CO)=CC[C@H]12 [GENIPOSIDE] — higher, > 100 µM
- COC(=O)C1=CO[C@@H](O[C@@H]2O[C@H](CO[C@@H]3O[C@@H](C)[C@H](O)[C@@H](O)[C@H]3O)[C@@H](O)[C@H](O)[C@H]2O)[C@@H]2C(CO)=CC[C@H]12 — higher, > 100 µM
- COC(=O)C1=CO[C@@H](O[C@@H]2O[C@H](CO[C@@H]3O[C@H](COC(=O)/C=C/c4ccc(O)c(O)c4)[C@@H](O)[C@H](O)[C@H]3O)[C@@H](O)[C@H](O)[C@H]2O)[C@@H]2C(CO)=CC[C@H]12 — higher, > 100 µM
- CC1=C(C(=O)O[C@@H]2O[C@H](CO[C@@H]3O[C@H](CO)[C@@H](O)[C@H](O)[C@H]3O)[C@@H](O)[C@H](O)[C@H]2O)C(C)(C)CCC1 [JASMINOSIDE S] — higher, > 100 µM
- COC(=O)C1=CO[C@@H](O)[C@@H]2C(CO)=C[C@@H](O)[C@H]12 — 4.8-fold higher, 28.7 µM
- COC(=O)C1=CO[C@@H](O[C@@H]2O[C@H](CO)[C@@H](O[C@@H]3O[C@H](CO)[C@@H](O)[C@H](O)[C@H]3O)[C@H](O)[C@H]2O)[C@@H]2C(CO)=CC[C@H]12 [GENAMESIDE C] — higher, > 100 µM
- COC(=O)C1=CO[C@@H](O[C@@H]2O[C@H](CO[C@@H]3OC[C@](O)(CO)[C@H]3O)[C@@H](O)[C@H](O)[C@H]2O)[C@@H]2C(CO)=CC[C@H]12 — higher, > 100 µM
- CC1=C(C(=O)O[C@@H]2O[C@H](CO[C@@H]3O[C@H](CO)[C@@H](O)[C@H](O)[C@H]3O)[C@@H](O)[C@H](O)[C@H]2O)C(C)(C)CC=C1 [JASMINOSIDE R] — higher, > 100 µM
- COC(=O)C1=CO[C@@H](O[C@@H]2O[C@H](CO[C@@H]3O[C@H](CO)[C@@H](O)[C@H](O)[C@H]3O)[C@@H](O)[C@H](O)[C@H]2O)[C@@H]2C(CO)=CC[C@H]12 [GENIPIN GENTIOBIOSIDE] — higher, > 100 µM
- COC(=O)C1=CO[C@@H](O[C@@H]2O[C@H](CO[C@H]3OC[C@@H](O)[C@H](O)[C@H]3O)[C@@H](O)[C@H](O)[C@H]2O)[C@@H]2C(CO)=CC[C@H]12 — higher, > 100 µM
- COC(=O)C1=CO[C@@H](O[C@@H]2O[C@H](CO[C@H]3O[C@H](CO)[C@@H](O)[C@H](O)[C@H]3O)[C@@H](O)[C@H](O)[C@H]2O)[C@@H]2C(CO)=CC[C@H]12 — higher, > 100 µM
- CC1=CC(=O)CC(C)(C)[C@H]1CO[C@@H]1O[C@H](CO[C@@H]2OC[C@](O)(CO)[C@H]2O)[C@@H](O)[C@H](O)[C@H]1O [JASMINOSIDE T] — higher, > 100 µM
- COC(=O)C1=CO[C@@H](O[C@@H]2O[C@H](CO)[C@@H](O)[C@H](O)[C@H]2O)[C@@H]2C(CO)=C[C@@H](O)[C@H]12 — higher, > 100 µM
